Data taken from patent US20160038518A1, “METHODS FOR TREATING PSORIASIS AND VASCULAR INFLAMMATION” (VASCULAR BIOGENICS LTD., priority 2012, published 2016).
Where two headings read alike, the source gives them in different places.

Columns and labels:
[1] = test system: LPS and Pam3CSK4 signaling; assay: LPS and Pam3CSK4 signaling in human monocytes; format: cell-based; conditions: FIG. 1B
human CD 14+ monocytes = conditions: VB-201 5 μg/ml prior to chemotaxis assay; MCP-1 (50 ng/ml), MIP-1a (50 ng/ml) or RANTES (100 ng/ml); FIG. 1A
[2] = test system: patients with moderate to severe plaque psoriasis; assay: safety evaluation in the Phase II clinical study; format: in vivo, human
Procedure: The efficacy analyses were performed on the data from a modified intention-to-treat (MITT) population (defined as all patients randomized who received at least one dose of medication and had at least one efficacy evaluation). The safety analyses were performed on all randomized patients who received at least one dose of the drug.

[3] = Procedure: Additional criteria included change in affected body surface area from baseline to week 12, change in PGA score from baseline to week 12, any change relative to baseline PASI score, and change in Patient Psoriasis Global Assessment (PtGA) score from baseline to week 12. Blood samples were taken at weeks 4, 8 and 12, in order to assess VB-201 pharmacokinetics, as well as plasma cytokine levels. Safety of VB-201 administration was evaluated by physical examination, incidence of adverse effects, vital signs, clinical chemistry, hematology, urinalysis and electrocardiograms.
[4] = test system: vascular inflammation of carotid arteries and ascending aorta in patients with moderate to severe plaque psoriasis; assay: 18-FDG PET/CT sub-study of phase 2 trial: vascular inflammation as target to background ratio (TBR); format: in vivo, human; conditions: 12 weeks
From the text: This study was a sub-study of the above phase 2, randomized, double-blind, multicenter trial, of patients (aged 18-75) with moderate to severe plaque psoriasis, see also infra at Example 3. […] In addition, patients enrolled into the sub-study had to have the presence or history of one of the following: non-insulin dependent diabetes mellitus (NIDDM), peripheral vascular disease (PVD), smoker, hypertension, ischemic heart disease or cerebrovascular disease; obesity (BMI ≧25), hypercholesterolemia (LDL>160 mg/dL or taking anti-hyperlipidemia treatment), or family history of ischemic heart disease (in brother or father before age 55, in sister or mother before age 65) or at least 40 years of age with a history of psoriasis for at least 7 years. Patients were randomly assigned (1:1:1) to receive VB-201 20 mg, VB-201 80 mg or placebo for 12 weeks. The primary endpoint was the maximum TBR in the most diseased segment (MDS) of an index vessel at 12 weeks (percent change from baseline). The effect of treatment with 20 mg per day and 80 mg per day VB-201 on carotid arteries and ascending aorta inflammation was examined. Inflammation was measured by positron emission computed tomography (PET-CT) to quantify 18-fluorodeoxyglucose (18-FDG) uptake as a target to background ratio (TBR).
[…] imaging was performed following an overnight fast using a PET-CT scanner system with CT attenuation correction. 18-FDG was administered intravenously at a dose of 370 MBq and PET images were acquired approximately 90 minutes after injection. Baseline scans were evaluated and all inflammatory plaques in the left and right carotid arteries and ascending aorta were identified and totaled for each treatment group. PET scans were performed at Harvard Medical School and Massachusetts General Hospital, Boston, Mass., USA and at Translational and Molecular Imaging Institute and Department of Radiology, Mount Sinai School of Medicine, New York, N.Y., USA. All scans were analyzed by a central reader at the Mount Sinai center in New York City. The TBR was calculated from the ratio of the standard uptake values (SUV) of the target compared to background venous activity:
TBR (Target Background Ratio)=Target activity SUVTarget/SUV Background Venous Activity
The baseline and 12-week PET/CT datasets for each patient were structurally co-registered with each other, and FDG uptake was compared across each patient's images within pre-defined sections of the target vessels. For the aorta, measurements were made every 3 mm, starting 1 cm above the aortic valve annulus, continuing to the bottom of the aortic arch. For the right and left carotids, measurements were made every 3 mm, starting at the level of the carotid artery bifurcation, and continuing inferiorly 4 cm into the common carotid artery. Measurements were made in the axial plane by drawing a region of interest (ROI) around the artery wall and the maximum standardized uptake value (SUV) was recorded as the time- and dose-corrected tissue radioactivity divided by body weight. This represented the values for the target tissue. For the carotid arteries, the SUV Mean from the lumen of the jugular vein was used in at least 10 consecutive slices (at least 5 on each side). For the aorta, the background SUVMean from the atrium or SVC was used in at least 10 consecutive slices.
All statistical tests were two-sided with a significance level of 5%, unless specified otherwise, and were performed using SASS Version 9.2. Data was summarized using descriptive statistics (number of patients [N], mean, standard deviation [SD], median, minimum, and maximum).
Subjects were scanned by PET-CT to determine baseline 18-FDG uptake, and those with a TBR of at least 1.6 in either the carotid artery or the ascending aorta were selected. After screening and establishment of a baseline, eligible subjects were randomly assigned to receive 20 mg per day VB-201, 80 mg per day VB-201 or a daily placebo, for a period of 12 weeks. […]

[5] = 80 mg group, patients not taking concomitant statins
[6] = patients taking statins (6 on 20 mg and 6 on 80 mg), p=0.01

CCCCCCCCCCCCCCCCOC[C@H](COP(=O)([O-])OCC[N+](C)(C)C)OCCCCC(=O)O [VB-201, 1-hexadecyl-2-(4′-carboxy)butyl-sn-glycero-3-phosphocholine]
inhibition of LPS and Pam3CSK4 signaling [1]: inhibition of LPS and Pam3CSK4 signaling
human monocyte migration towards chemoattractants (human CD 14+ monocytes): decreases human monocyte migration
severity of diarrhea cases ([2]; 80 mg/day): mild (Grade 1) and transient
diarrhea rate ([2]; 80 mg/day (placebo 6.8%)): 15.3%
safety and tolerability ([2]; PET-CT sub-study, 20 or 80 mg/day, 12 weeks): safe and well tolerated
tolerability ([2]; doses of 20 mg/day and 80 mg/day): well tolerated
overall rate of Serious Adverse Events ([2]; main study, 2 subjects): 1.6%
deaths on therapy ([2]; main study, 12 weeks): No deaths occurred on therapy
related Serious Adverse Events ([2]; main study, 12 weeks): No related Serious Adverse Events were observed
overall rate of discontinuation due to Adverse Events ([2]; on VB-201, 4 subjects): 3.2%
mean VB-201 trough level ([3]; patients in quartile 1): about 0 ng/mL
mean VB-201 trough level ([3]; patients in quartile 4): about 3,640 ng/mL
change from baseline in 18-FDG-PET MDS TBR of the index vessel ([4]; 20 mg/day, p=0.14): −7.3%
mean change from baseline of the maximum TBR in the MDS in the index vessel [4, 5]: −0.39
percent change from baseline of the maximum TBR in the MDS in the index vessel [4, 5]: −8.84%
change from baseline in 18-FDG-PET MDS TBR of the index vessel ([4]; 80 mg/day, p=0.04): −12.7%
dose response of TBR change across quartiles of VB-201 trough blood levels ([4]; p=0.037, FIG. 5): A dose response was seen
reduction from baseline in vascular inflammation based on PET-CT measure ([4]; VB-201 80 mg group, p=0.04): 12.7%
reduction from baseline in vascular inflammation based on PET-CT measure ([4]; combined VB-201 treated group, p=0.01): 9.8%
inflammation of the ascending aorta (18-FDG uptake) ([4]; one patient with breast implants, 20 mg/day, FIG. 6): inflammation of the aorta in the patient was also reduced
mean change from baseline of the maximum TBR in the MDS in the index vessel [4, 6]: −0.74
percent change from baseline of the maximum TBR in the MDS in the index vessel [4, 6]: −18.48%
